This note sets out measurements from ChEMBL document CHEMBL3580566, “Identification of 2-[4-[(4-Methoxyphenyl)methoxy]-phenyl]acetonitrile and Derivatives as Potent Oct3/4 Inducers” (2015).

Activity calls are given as the source filed them. The calls are words filed in the database; no cut-off is given here.

Test [1] has as its target POU domain, class 5, transcription factor 1 (Homo sapiens) (UniProt Q01860). Briefly: Activation of human Oct3/4 in NCCIT cells transfected with firefly luciferase gene assessed as relative luciferase activity after 72 hrs by luminometer plate reader relative to DMSO control. In kind it is cell-based.
Test [2] shares this target. Briefly: Activation of human Oct3/4 in HEK293 cells transfected with firefly luciferase gene assessed as relative luciferase activity after 72 hrs by luminometer plate reader relative to DMSO control. In kind it is cell-based.
In test [3] the test system is Fibroblast. Briefly: Induction of human Oct3/4 protein expression in human adult primary fibroblasts assessed as positive cells normalized to total number of cells. Type of test: functional.
The subject of test [4] is Fibroblast. Briefly: Induction of human Rex1 gene expression in human adult primary fibroblasts assessed as increase in mRNA level at 20 uM after 48 hrs by qRT-PCR analysis relative to control. In kind it is functional. On the technique in general: In qPCR the cycle at which signal appears reflects the starting amount.
Test [5] relates to NCCIT. Briefly: Induction of Oct3/4 accumulation in human NCCIT cells at 10 uM after 48 hrs by immunolotting analysis. Type of test: functional, cell-based.
Test [6] relates to Fibroblast. Description: Induction of human Oct3/4 gene expression in human adult primary fibroblasts assessed as increase in mRNA level at 20 uM after 48 hrs by qRT-PCR analysis relative to control. Type of test: functional.
Test [7] deals with Homeobox protein NANOG (Homo sapiens) (UniProt Q9H9S0). Description: Activation of human Nanog in NCCIT cells transfected with firefly luciferase gene assessed as relative luciferase activity up to 72 hrs by luminometer plate reader relative to DMSO control. Type of test: cell-based.
Sequence of Homeobox protein NANOG (Homo sapiens) (Q9H9S0 whole entry): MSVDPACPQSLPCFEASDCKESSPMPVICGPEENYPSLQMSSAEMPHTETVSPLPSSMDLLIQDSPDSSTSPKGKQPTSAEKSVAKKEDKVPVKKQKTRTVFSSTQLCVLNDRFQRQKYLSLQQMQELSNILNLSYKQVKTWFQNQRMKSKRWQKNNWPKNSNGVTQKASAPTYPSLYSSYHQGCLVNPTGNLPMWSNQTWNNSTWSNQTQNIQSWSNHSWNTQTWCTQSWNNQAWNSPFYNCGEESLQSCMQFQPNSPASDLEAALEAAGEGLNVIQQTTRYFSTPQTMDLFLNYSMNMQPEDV
In test [8] the test system is Fibroblast. Briefly: Induction of human Oct3/4 protein expression in human adult primary fibroblasts assessed as increase in protein expression at 20 uM after 72 hrs by immunoblotting analysis relative to control. Type of test: functional, cell-based.
Test [9] concerns Fibroblast. Briefly: Induction of human Oct3/4 protein expression in human adult primary fibroblasts assessed as increase in protein level at 20 uM after 5 days by Hoechst 33258 staining based immunostaining relative to control. In kind it is functional, cell-based.
Test [10] deals with Fibroblast. Description: Induction of human Klf4 gene expression in human adult primary fibroblasts assessed as increase in mRNA level at 20 uM after 48 hrs by qRT-PCR analysis relative to control. In kind it is functional.
The subject of test [11] is Fibroblast. Briefly: Induction of human Nanog protein expression in human adult primary fibroblasts assessed as increase in protein expression at 20 uM after 72 hrs by immunoblotting analysis relative to control. In kind it is functional, cell-based. For orientation: Immunoblotting shows a protein as a band on a membrane.
For test [12], the system named is HeLa. Description: Induction of Nanog accumulation in human HeLa cells at 10 uM after 48 hrs by immunolotting analysis. In kind it is functional, cell-based.
Test [13] concerns Fibroblast. Briefly: Induction of human Sox2 protein expression in human adult primary fibroblasts assessed as increase in protein expression at 20 uM after 72 hrs by immunoblotting analysis relative to control. In kind it is functional, cell-based.
For test [14], the system named is Fibroblast. Description: Induction of human Sox2 protein expression in human adult primary fibroblasts assessed as increase in protein level at 20 uM after 5 days by Hoechst 33258 staining based immunostaining relative to control. Type of test: functional, cell-based.
In test [15] the test system is Fibroblast. Description: Induction of human KLF4 protein expression in human adult primary fibroblasts assessed as increase in protein level at 20 uM after 5 days by Hoechst 33258 staining based immunostaining relative to control. Type of test: functional, cell-based.
Test [16] concerns Fibroblast. Briefly: Induction of human Nanog protein expression in human adult primary fibroblasts assessed as increase in protein level at 20 uM after 5 days by Hoechst 33258 staining based immunostaining relative to control. Type of test: functional, cell-based.
Test [17] relates to Fibroblast. Description: Induction of human Oct3/4 and Sox2 protein expression in human adult primary fibroblasts assessed as positive cells normalized to total number of cells. In kind it is functional, cell-based.
Test [18] has as its system Fibroblast. Briefly: Induction of cell cycle arrest in human adult primary fibroblasts assessed as accumulation of cells at S phase at 20 uM after 5 days by propidium iodide staining assay (reference value: 2%). In kind it is functional.
Test [19] deals with Fibroblast. Briefly: Induction of human c-Myc gene expression in human adult primary fibroblasts assessed as increase in mRNA level at 20 uM after 48 hrs by qRT-PCR analysis relative to control. In kind it is functional.
The subject of test [20] is Fibroblast. Briefly: Induction of cell cycle arrest in human adult primary fibroblasts assessed as accumulation of cells at G1 phase at 20 uM after 5 days by propidium iodide staining assay (reference value: 74%). In kind it is functional.
In test [21] the test system is Fibroblast. Briefly: Induction of human Lin28 protein expression in human adult primary fibroblasts assessed as increase in protein expression at 20 uM after 72 hrs by immunoblotting analysis relative to control. Type of test: functional, cell-based.
The target of test [22] is POU domain, class 5, transcription factor 1 (Homo sapiens) (UniProt Q01860). Description: Activation of human Oct3/4 in human adult primary fibroblasts at 20 uM by immunoblotting analysis relative to control. To be noted: TDE = time-dependent effect.
Sequence of POU domain, class 5, transcription factor 1 (Homo sapiens) (Q01860 whole entry, the tested form may be a part): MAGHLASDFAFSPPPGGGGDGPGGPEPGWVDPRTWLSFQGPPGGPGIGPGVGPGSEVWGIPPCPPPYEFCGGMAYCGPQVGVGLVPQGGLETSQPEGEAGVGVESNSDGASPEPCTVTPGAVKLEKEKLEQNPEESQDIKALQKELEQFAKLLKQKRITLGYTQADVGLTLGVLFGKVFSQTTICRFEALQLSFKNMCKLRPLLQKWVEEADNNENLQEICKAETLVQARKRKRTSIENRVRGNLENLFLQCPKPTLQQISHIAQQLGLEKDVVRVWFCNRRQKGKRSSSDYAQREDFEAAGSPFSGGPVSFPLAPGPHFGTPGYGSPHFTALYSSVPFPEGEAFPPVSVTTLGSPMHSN
The test system of test [23] is Fibroblast. Description: Induction of human Sox2 protein expression in human adult primary fibroblasts assessed as positive cells normalized to total number of cells. In kind it is functional.
Test [24] deals with NCCIT. Description: Induction of Nanog accumulation in human NCCIT cells at 10 uM after 48 hrs by immunolotting analysis. Type of test: functional, cell-based.
Test [25] has as its system HeLa. Description: Induction of Oct3/4 accumulation in human HeLa cells at 10 uM after 48 hrs by immunolotting analysis. Type of test: functional, cell-based.
Test [26] concerns Fibroblast. Description: Induction of human Nanog gene expression in human adult primary fibroblasts assessed as increase in mRNA level at 20 uM after 48 hrs by qRT-PCR analysis relative to control. In kind it is functional.
Test [27] has as its system Fibroblast. Briefly: Induction of human E-Cadherin level in human adult primary fibroblasts assessed as increase in protein level at 20 uM after 72 hrs by FACS analysis relative to control. Type of test: functional, cell-based. Background: In flow cytometry, cells or beads pass a laser one at a time.
Test [28] concerns the target POU domain, class 5, transcription factor 1 (Homo sapiens) (UniProt Q01860). Briefly: Activation of human Oct3/4 in HEK293 cells transfected with firefly luciferase gene assessed as luciferase signal by luminometer plate reader relative to DMSO control. In kind it is cell-based.
For test [29], the system named is HEK293. Briefly: Induction of human Oct3/4 protein expression in HEK293 cells assessed as increase in protein expression at 10 uM after 96 hrs by immunoblotting analysis relative to DMSO control. In kind it is functional, cell-based.
Test [30] deals with POU domain, class 5, transcription factor 1 (Homo sapiens) (UniProt Q01860). Description: Activation of human Oct3/4 in HEK293 cells transfected with firefly luciferase gene assessed as relative luciferase activity at 5 uM after 72 hrs by luminometer plate reader relative to DMSO control. In kind it is cell-based.
The subject of test [31] is HEK293. Description: Induction of human Sox2 protein expression in HEK293 cells assessed as increase in protein expression at 10 uM after 48 hrs by immunoblotting analysis relative to DMSO control. Type of test: functional, cell-based.
The subject of test [32] is HEK293. Briefly: Induction of human Oct3/4 protein expression in HEK293 cells assessed as increase in protein expression at 6 uM after 48 hrs by immunoblotting analysis relative to DMSO control. Type of test: functional, cell-based.
The subject of test [33] is HEK293. Description: Induction of human Oct3/4 expression in HEK293 cells transfected with firefly luciferase gene assessed as increase in mRNA level at 20 uM after 72 hrs by qRT-PCT analysis. In kind it is functional.
Test [34] addresses POU domain, class 5, transcription factor 1 (Homo sapiens) (UniProt Q01860). Briefly: Activation of human Oct3/4 in HEK293 cells transfected with firefly luciferase gene assessed as relative luciferase activity after 48 to 72 hrs by luminometer plate reader relative to DMSO control. In kind it is cell-based.
Test [35] concerns HEK293. Description: Induction of human Sox2 protein expression in HEK293 cells assessed as increase in protein expression at 10 uM after 24 hrs by immunoblotting analysis relative to DMSO control. In kind it is functional, cell-based.
Test [36] relates to HEK293. Briefly: Induction of human Oct3/4 protein expression in HEK293 cells assessed as increase in protein expression at 10 uM after 48 hrs by immunoblotting analysis relative to DMSO control. In kind it is functional, cell-based.
Test [37] concerns the target POU domain, class 5, transcription factor 1 (Homo sapiens) (UniProt Q01860). Briefly: Activation of human Oct3/4 in HEK293 cells transfected with firefly luciferase gene assessed as relative luciferase activity at 5 uM after 48 hrs by luminometer plate reader relative to DMSO control. Type of test: cell-based.
The target is the same in test [38]. Description: Activation of human Oct3/4 in HEK293 cells transfected with firefly luciferase gene assessed as relative luciferase activity at 5 uM by luminometer plate reader relative to DMSO control. In kind it is cell-based. To be noted: TDE = time-dependent effect.
Test [39] concerns Fibroblast. Description: Induction of human Oct3/4 protein expression in human adult primary fibroblasts assessed as increase in protein expression at 10 uM after 72 hrs by immunoblotting analysis relative to control. Type of test: functional, cell-based.
For test [40], the system named is HFF. Description: Induction of human Oct3/4 protein expression in human neonatal foreskin fibroblasts assessed as increase in protein expression at 10 uM after 72 hrs by immunoblotting analysis relative to control. Type of test: functional, cell-based.
Test [41] deals with HEK293. Description: Induction of human Sox2 protein expression in HEK293 cells assessed as increase in protein expression at 10 uM after 96 hrs by immunoblotting analysis relative to DMSO control. In kind it is functional, cell-based.
For test [42], the system named is HEK293. Briefly: Induction of human Oct3/4 protein expression in HEK293 cells assessed as increase in protein expression after 48 hrs by immunoblotting analysis relative to DMSO control. Type of test: functional, cell-based.
Test [43] has as its system HEK293. Description: Induction of human Nanog protein expression in HEK293 cells assessed as increase in protein expression at 0.5 to 20 uM after 48 hrs by immunoblotting analysis relative to DMSO control. Type of test: functional, cell-based.
The subject of test [44] is HEK293. Briefly: Induction of human Sox2 protein expression in HEK293 cells assessed as increase in protein expression at 0.5 to 20 uM after 48 hrs by immunoblotting analysis relative to DMSO control. In kind it is functional, cell-based.
In test [45] the test system is HEK293. Briefly: Induction of human Oct3/4 expression in HEK293 cells transfected with firefly luciferase gene assessed as increase in mRNA level at 10 uM after 72 hrs by qRT-PCT analysis. Type of test: functional.
In test [46] the test system is HEK293. Description: Induction of human Oct3/4 protein expression in HEK293 cells assessed as increase in protein expression at 10 uM after 24 hrs by immunoblotting analysis relative to DMSO control. In kind it is functional, cell-based.

Regarding `Cc1ccc(COc2ccc(CC#N)cc2)cc1`, the results for the RLU in test [1] and in test [2] were 2.26 and 2, respectively.
In the same order, the values of `N#Cc1ccc(OCc2ccc(F)cc2)cc1` are 2.26 and 5.83.
The like results for `COc1ccc(COc2ccc(C#N)cc2)cc1` were, in that order, 0.99 and 3.
Take `N#CCc1ccc(OCc2ccc(F)cc2)cc1`: the Activity was 6% in [3]; 7% in test [18]; 66% in test [20]; “tde” in test [22]; 9% in test [23]. The “fold change (FC)” value in test [4] is 1.3; in test [6] it was 7; in test [10], 6; in test [19], 2; in test [26], 12. For the same compound, the result in test [5], in test [7], in test [8], in test [9], in test [11] and in test [12] was Active. In addition, the result in [13], in test [14], in [15], in test [16], in test [17] and in test [21] was Active. Moreover, the outcome in test [24], in [25] and in test [27] was Active. The RLU was 4.02 in [1] and 6.58 in test [2].
For the compound `N#CCc1ccc(OCc2ccc([N+](=O)[O-])cc2)cc1`, the values for the RLU in test [1] and in test [2] were 2.61 and 4.02, respectively.
As for `COc1ccc(COc2ccc(CC#N)cc2)cc1`, the result in test [7], in test [29], in [31], in test [32], in [35] and in test [36] was Active. Further, the outcome in test [39], in test [40], in [41], in [43], in [44] and in test [46] was Active. Besides, the fold change (FC) in [28] was found to be 5; in test [30], 3; in test [33] it was 4; in [37], 2; in test [45], 2.5. Also, the Activity result in test [34] is “Dose-dependent effect”; in test [38], “tde”; in [42] it was “Dose-dependent effect”. In addition, the RLU in [1] worked out at 2.68; in test [2], 3.85.
Take `N#CCc1ccc(OCc2ccc(C#N)cc2)cc1`: the RLU in [1] is 1.88; in test [2] it was 1.79.
Turning to `N#Cc1ccc(OCc2ccc(OC(F)(F)F)cc2)cc1`, the RLU in [1] is 1.5; in test [2], 3.4.
The like results for `N#Cc1ccc(OCc2ccc([N+](=O)[O-])cc2)cc1` were, in that order, 1.08 and 2.65.
The like results for `N#CCc1ccc(OCc2ccc(OC(F)(F)F)cc2)cc1` were, in that order, 2.14 and 4.9.
As to `N#CCc1ccc(OCc2ccc(-c3ccccc3)cc2)cc1`, the RLU was 0.73 in test [1] and 0.84 in test [2].
